Assay results reported in ChEMBL document CHEMBL1201861, “Genomics of Drug Sensitity in Cancer screening data, Wellcome Trust Sanger Institute”.

Columns and labels:
Test in all cases: cells
HCC2218 = type: functional, cell-based, Homo sapiens; conditions: Homo sapiens, HCC2218
Description: SANGER: Inhibition of human HCC2218 cell growth in a cell viability assay.

GB-1 = type: functional, cell-based, Homo sapiens; conditions: Homo sapiens, GB-1
Description: SANGER: Inhibition of human GB-1 cell growth in a cell viability assay.

GR-ST = type: functional, cell-based, Homo sapiens; conditions: Homo sapiens, GR-ST
Description: SANGER: Inhibition of human GR-ST cell growth in a cell viability assay.

MEG-01 = type: functional, cell-based, Homo sapiens; conditions: Homo sapiens, MEG-01
Description: SANGER: Inhibition of human MEG-01 cell growth in a cell viability assay.

KARPAS-45 = type: functional, cell-based, Homo sapiens; conditions: Homo sapiens, KARPAS-45
Description: SANGER: Inhibition of human KARPAS-45 cell growth in a cell viability assay.

NOMO-1 = type: functional, cell-based, Homo sapiens; conditions: Homo sapiens, NOMO-1
Description: SANGER: Inhibition of human NOMO-1 cell growth in a cell viability assay.

SH-4 = type: functional, cell-based, Homo sapiens; conditions: Homo sapiens, SH-4
Description: SANGER: Inhibition of human SH-4 cell growth in a cell viability assay.

NCI-H526 = type: functional, cell-based, Homo sapiens; conditions: Homo sapiens, NCI-H526
Description: SANGER: Inhibition of human NCI-H526 cell growth in a cell viability assay.

MC116 = type: functional, cell-based, Homo sapiens; conditions: Homo sapiens, MC116
Description: SANGER: Inhibition of human MC116 cell growth in a cell viability assay.

SK-UT-1 = type: functional, cell-based, Homo sapiens; conditions: Homo sapiens, SK-UT-1
Description: SANGER: Inhibition of human SK-UT-1 cell growth in a cell viability assay.

CCRF-CEM = type: functional, cell-based, Homo sapiens; conditions: Homo sapiens, CCRF-CEM
Description: SANGER: Inhibition of human CCRF-CEM cell growth in a cell viability assay.

HEL = type: functional, cell-based, Homo sapiens; conditions: Homo sapiens, HEL
Description: SANGER: Inhibition of human HEL cell growth in a cell viability assay.

EW-11 = type: functional, cell-based, Homo sapiens; conditions: Homo sapiens, EW-11
Description: SANGER: Inhibition of human EW-11 cell growth in a cell viability assay.

BE-13 = type: functional, cell-based, Homo sapiens; conditions: Homo sapiens, BE-13
Description: SANGER: Inhibition of human BE-13 cell growth in a cell viability assay.

D283 Med = type: functional, cell-based, Homo sapiens; conditions: Homo sapiens, D283 Med
Description: SANGER: Inhibition of human D-283MED cell growth in a cell viability assay.

EW-3 = type: functional, cell-based, Homo sapiens; conditions: Homo sapiens, EW-3
Description: SANGER: Inhibition of human EW-3 cell growth in a cell viability assay.

U-266 = type: functional, cell-based, Homo sapiens; conditions: Homo sapiens, U-266
Description: SANGER: Inhibition of human U-266 cell growth in a cell viability assay.

A498 = type: functional, cell-based, Homo sapiens; conditions: Homo sapiens, A498
Description: SANGER: Inhibition of human A498 cell growth in a cell viability assay.

KNS-81-FD = type: functional, cell-based, Homo sapiens; conditions: Homo sapiens, KNS-81-FD
Description: SANGER: Inhibition of human KNS-81-FD cell growth in a cell viability assay.

NCI-H747 = type: functional, cell-based, Homo sapiens; conditions: Homo sapiens, NCI-H747
Description: SANGER: Inhibition of human NCI-H747 cell growth in a cell viability assay.

NCI-H23 = type: functional, cell-based, Homo sapiens; conditions: Homo sapiens, NCI-H23
Description: SANGER: Inhibition of human NCI-H23 cell growth in a cell viability assay.

IST-MEL1 = type: functional, cell-based, Homo sapiens; conditions: Homo sapiens, IST-MEL1
Description: SANGER: Inhibition of human IST-MEL1 cell growth in a cell viability assay.

RH-1 = type: functional, cell-based, Homo sapiens; conditions: Homo sapiens, RH-1
Description: SANGER: Inhibition of human RH-1 cell growth in a cell viability assay.

DSH1 = type: functional, cell-based, Homo sapiens; conditions: Homo sapiens, DSH1
Description: SANGER: Inhibition of human DSH1 cell growth in a cell viability assay.

LNCaP-Clone-FGC = type: functional, cell-based, Homo sapiens; conditions: Homo sapiens, LNCaP-Clone-FGC
Description: SANGER: Inhibition of human LNCaP-Clone-FGC cell growth in a cell viability assay.

U-87 MG = type: functional, cell-based, Homo sapiens, U-87MG ATCC; conditions: Homo sapiens, U-87 MG
Description: SANGER: Inhibition of human U-87-MG cell growth in a cell viability assay.

TE-1 = type: functional, cell-based, Homo sapiens; conditions: Homo sapiens, TE-1
Description: SANGER: Inhibition of human TE-1 cell growth in a cell viability assay.

SHP77 = type: functional, cell-based, Homo sapiens, SHP-77; conditions: Homo sapiens, SHP77
Description: SANGER: Inhibition of human SHP-77 cell growth in a cell viability assay.

KM12 = type: functional, cell-based, Homo sapiens; conditions: Homo sapiens, KM12
Description: SANGER: Inhibition of human KM12 cell growth in a cell viability assay.

EW-24 = type: functional, cell-based, Homo sapiens; conditions: Homo sapiens, EW-24
Description: SANGER: Inhibition of human EW-24 cell growth in a cell viability assay.

LC-2-ad = type: functional, cell-based, Homo sapiens; conditions: Homo sapiens, LC-2-ad
Description: SANGER: Inhibition of human LC-2-ad cell growth in a cell viability assay.

NKM-1 = type: functional, cell-based, Homo sapiens; conditions: Homo sapiens, NKM-1
Description: SANGER: Inhibition of human NKM-1 cell growth in a cell viability assay.

HCE-T = type: functional, cell-based, Homo sapiens; conditions: Homo sapiens, HCE-T
Description: SANGER: Inhibition of human HCE-T cell growth in a cell viability assay.

A4-Fuk = type: functional, cell-based, Homo sapiens; conditions: Homo sapiens, A4-Fuk
Description: SANGER: Inhibition of human A4-Fuk cell growth in a cell viability assay.

CP66-MEL = type: functional, cell-based, Homo sapiens; conditions: Homo sapiens, CP66-MEL
Description: SANGER: Inhibition of human CP66-MEL cell growth in a cell viability assay.

JVM-3 = type: functional, cell-based, Homo sapiens; conditions: Homo sapiens, JVM-3
Description: SANGER: Inhibition of human JVM-3 cell growth in a cell viability assay.

ES3 = type: functional, cell-based, Homo sapiens; conditions: Homo sapiens, ES3
Description: SANGER: Inhibition of human ES3 cell growth in a cell viability assay.

COLO-668 = type: functional, cell-based, Homo sapiens; conditions: Homo sapiens, COLO-668
Description: SANGER: Inhibition of human COLO-668 cell growth in a cell viability assay.

SK-N-FI = type: functional, cell-based, Homo sapiens; conditions: Homo sapiens, SK-N-FI
Description: SANGER: Inhibition of human SK-N-FI cell growth in a cell viability assay.

SK-N-DZ = type: functional, cell-based, Homo sapiens; conditions: Homo sapiens, SK-N-DZ
Description: SANGER: Inhibition of human SK-N-DZ cell growth in a cell viability assay.

A388 = type: functional, cell-based, Homo sapiens; conditions: Homo sapiens, A388
Description: SANGER: Inhibition of human A388 cell growth in a cell viability assay.

SW 954 = type: functional, cell-based, Homo sapiens; conditions: Homo sapiens, SW 954
Description: SANGER: Inhibition of human SW954 cell growth in a cell viability assay.

TE-12 = type: functional, cell-based, Homo sapiens; conditions: Homo sapiens, TE-12
Description: SANGER: Inhibition of human TE-12 cell growth in a cell viability assay.

IA-LM = type: functional, cell-based, Homo sapiens; conditions: Homo sapiens, IA-LM
Description: SANGER: Inhibition of human IA-LM cell growth in a cell viability assay.

LU-134-A = type: functional, cell-based, Homo sapiens; conditions: Homo sapiens, LU-134-A
Description: SANGER: Inhibition of human LU-134-A cell growth in a cell viability assay.

ES8 = type: functional, cell-based, Homo sapiens; conditions: Homo sapiens, ES8
Description: SANGER: Inhibition of human ES8 cell growth in a cell viability assay.

SK-MEL-2 = type: functional, cell-based, Homo sapiens; conditions: Homo sapiens, SK-MEL-2
Description: SANGER: Inhibition of human SK-MEL-2 cell growth in a cell viability assay.

ACN = type: functional, cell-based, Homo sapiens; conditions: Homo sapiens, ACN
Description: SANGER: Inhibition of human ACN cell growth in a cell viability assay.

## CC(=O)O[C@H]1C(=O)[C@@]2(C)[C@H]([C@H](OC(=O)c3ccccc3)[C@]3(O)C[C@H](OC(=O)[C@H](O)[C@@H](NC(=O)c4ccccc4)c4ccccc4)C(C)=C1C3(C)C)[C@]1(OC(C)=O)CO[C@@H]1C[C@@H]2O [PACLITAXEL]
HCC2218
  IC50: > 0.102 µM
GB-1
  IC50: 36 nM
GR-ST
  IC50: 56.2 nM
MEG-01
  IC50: 29.8 nM
KARPAS-45
  IC50: 12.7 nM
NOMO-1
  IC50: 0.0928 µM
SH-4
  IC50: 18.9 nM
NCI-H526
  IC50: 0.0289 µM
MC116
  IC50: 2.89 nM
SK-UT-1
  IC50: 4.8 nM
CCRF-CEM
  IC50: 8.71 nM
HEL
  IC50: 41.4 nM
EW-11
  IC50: > 0.102 µM
BE-13
  IC50: 6.36 nM
D283 Med
  IC50: > 0.102 µM
EW-3
  IC50: > 0.102 µM
U-266
  IC50: > 0.102 µM
A498
  IC50: > 0.102 µM
KNS-81-FD
  IC50: > 0.102 µM
NCI-H747
  IC50: 29.3 nM
NCI-H23
  IC50: > 0.102 µM
IST-MEL1
  IC50: 26.2 nM
RH-1
  IC50: 38.2 nM
DSH1
  IC50: > 0.102 µM
LNCaP-Clone-FGC
  IC50: > 0.102 µM
U-87 MG
  IC50: > 0.102 µM
TE-1
  IC50: 0.00606 µM
SHP77
  IC50: > 0.102 µM
KM12
  IC50: 6.37 nM
EW-24
  IC50: 64.8 nM
LC-2-ad
  IC50: 0.317 nM
NKM-1
  IC50: > 102 nM
HCE-T
  IC50: 20.9 nM
A4-Fuk
  IC50: 6.11 nM
CP66-MEL
  IC50: > 0.102 µM
JVM-3
  IC50: > 0.102 µM
ES3
  IC50: > 0.102 µM
COLO-668
  IC50: > 0.102 µM
SK-N-FI
  IC50: > 0.102 µM
SK-N-DZ
  IC50: 0.0731 µM
A388
  IC50: 8.74 nM
SW 954
  IC50: 1.19 nM
TE-12
  IC50: 33.1 nM
IA-LM
  IC50: 2.8 nM
LU-134-A
  IC50: 0.0477 µM
ES8
  IC50: 5.38 nM
SK-MEL-2
  IC50: > 0.102 µM
ACN
  IC50: 3.16 nM

## N[C@@H](CSC(c1ccccc1)(c1ccccc1)c1ccccc1)C(=O)O [S-TRITYL-L-CYSTEINE]
HCC2218
  IC50: > 5.12 µM
GB-1
  IC50: > 5120 nM
GR-ST
  IC50: 2970 nM
MEG-01
  IC50: 1800 nM
KARPAS-45
  IC50: 1690 nM
NOMO-1
  IC50: > 5.12 µM
SH-4
  IC50: 2310 nM
NCI-H526
  IC50: 4.45 µM
MC116
  IC50: 709 nM
SK-UT-1
  IC50: 626 nM
CCRF-CEM
  IC50: 2110 nM
HEL
  IC50: 2750 nM
EW-11
  IC50: > 5.12 µM
BE-13
  IC50: 1080 nM
D283 Med
  IC50: > 5.12 µM
EW-3
  IC50: 4.92 µM
U-266
  IC50: 4.8 µM
A498
  IC50: > 5.12 µM
KNS-81-FD
  IC50: > 5.12 µM
NCI-H747
  IC50: > 5120 nM
NCI-H23
  IC50: > 5.12 µM
IST-MEL1
  IC50: > 5120 nM
RH-1
  IC50: > 5120 nM
DSH1
  IC50: > 5.12 µM
LNCaP-Clone-FGC
  IC50: > 5.12 µM
U-87 MG
  IC50: > 5.12 µM
TE-1
  IC50: 3.6 µM
SHP77
  IC50: > 5.12 µM
KM12
  IC50: 4670 nM
EW-24
  IC50: > 5120 nM
LC-2-ad
  IC50: 537 nM
NKM-1
  IC50: > 5120 nM
HCE-T
  IC50: 2790 nM
A4-Fuk
  IC50: 453 nM
CP66-MEL
  IC50: 3.44 µM
JVM-3
  IC50: > 5.12 µM
ES3
  IC50: > 5.12 µM
COLO-668
  IC50: > 5.12 µM
SK-N-FI
  IC50: 3.16 µM
SK-N-DZ
  IC50: 3.14 µM
A388
  IC50: 620 nM
SW 954
  IC50: 1880 nM
TE-12
  IC50: > 5120 nM
IA-LM
  IC50: 1390 nM
LU-134-A
  IC50: 4.34 µM
ES8
  IC50: 432 nM
SK-MEL-2
  IC50: > 5.12 µM
ACN
  IC50: 1460 nM

## CCN(CC)CCNC(=O)c1c(C)[nH]c(/C=C2\C(=O)Nc3ccc(F)cc32)c1C [SUNITINIB]
HCC2218
  IC50: > 8 µM
GB-1
  IC50: 710 nM
GR-ST
  IC50: > 8000 nM
MEG-01
  IC50: 1840 nM
KARPAS-45
  IC50: 2490 nM
NOMO-1
  IC50: 4.34 µM
SH-4
  IC50: 5480 nM
NCI-H526
  IC50: > 8 µM
MC116
  IC50: 4430 nM
SK-UT-1
  IC50: > 8000 nM
CCRF-CEM
  IC50: > 8000 nM
HEL
  IC50: 3480 nM
EW-11
  IC50: > 8 µM
BE-13
  IC50: 3230 nM
D283 Med
  IC50: > 8 µM
EW-3
  IC50: 6.43 µM
U-266
  IC50: > 8 µM
A498
  IC50: > 8 µM
KNS-81-FD
  IC50: > 8 µM
NCI-H747
  IC50: > 8000 nM
NCI-H23
  IC50: > 8 µM
IST-MEL1
  IC50: > 8000 nM
RH-1
  IC50: > 8000 nM
DSH1
  IC50: > 8 µM
LNCaP-Clone-FGC
  IC50: > 8 µM
U-87 MG
  IC50: > 8 µM
TE-1
  IC50: > 8 µM
SHP77
  IC50: > 8 µM
KM12
  IC50: 350 nM
EW-24
  IC50: > 8000 nM
LC-2-ad
  IC50: 1110 nM
NKM-1
  IC50: 98.5 nM
HCE-T
  IC50: > 8000 nM
A4-Fuk
  IC50: 1340 nM
CP66-MEL
  IC50: > 8 µM
JVM-3
  IC50: > 8 µM
ES3
  IC50: > 8 µM
COLO-668
  IC50: > 8 µM
SK-N-FI
  IC50: > 8 µM
SK-N-DZ
  IC50: 4.67 µM
A388
  IC50: > 8000 nM
SW 954
  IC50: 6280 nM
TE-12
  IC50: 805 nM
IA-LM
  IC50: > 8000 nM
LU-134-A
  IC50: > 8 µM
ES8
  IC50: > 8000 nM
SK-MEL-2
  IC50: > 8 µM
ACN
  IC50: > 8000 nM
